The values that follow come from patent US20250145599A1, “CERTAIN CHEMICAL ENTITIES, COMPOSITIONS, AND METHODS” (Retune Pharma Inc., priority 2022, published 2025).

The structures appear in SMILES notation.

One assay deals with IGF-1R (Homo sapiens, UniProt P08069). The assay is described as follows: IGF-1R biochemical assay (ADP-Glo). As to conditions: read-out: IGF1R IC50. The method, then:
The inhibitory activity against IGF-1R was measured using ADP-Glo assay. The percent (%) inhibition at each concentration of compound is calculated based on and relative to the luminescence signal in the Max and Min control wells contained within each assay plate. The Max control wells contain enzyme and substrate as 0% inhibition, and the Min control wells only contain substrate without enzyme as 100% inhibition. The concentrations and % inhibition values for tested compounds are plotted and the concentration of compound required for 50% inhibition (IC50) is determined with a four-parameter logistic dose response equation.
Table 3 provides IC50 data of representative compounds against IGF-1R using ADP-Glo assay. The IC50 data are designated within the following ranges: A: ≤0.10 μM, B: >0.10 μM to ≤1 μM, C: >1 μM to ≤20 μM
In general terms: In ADP-Glo the light output rises with the ADP produced.

In another assay the test system is Ba/F3-TEL-IGF-1R cells. The assay is described as follows: CellTiter-Glo luminescent cell viability assay. The conditions noted are these: cellular IC50, Ba/F3-TEL-IGF-1R cells. The assay is classed as cell-based. As for the experimental part: The CellTiter-Glo luminescent cell viability assay was used to determine the inhibitory activity of the compounds against IGF-1R in Ba/F3-TEL-IGF-1R cells. […] The IC50 data are designated within the following ranges: A: ≤1 μM, B: >1 μM to ≤10 μM, C: >10 μM to ≤20 μM
(ATP-based viability assays read luminescence as a measure of living cells.)

IGF-1R, sequence (P08069 31-1367): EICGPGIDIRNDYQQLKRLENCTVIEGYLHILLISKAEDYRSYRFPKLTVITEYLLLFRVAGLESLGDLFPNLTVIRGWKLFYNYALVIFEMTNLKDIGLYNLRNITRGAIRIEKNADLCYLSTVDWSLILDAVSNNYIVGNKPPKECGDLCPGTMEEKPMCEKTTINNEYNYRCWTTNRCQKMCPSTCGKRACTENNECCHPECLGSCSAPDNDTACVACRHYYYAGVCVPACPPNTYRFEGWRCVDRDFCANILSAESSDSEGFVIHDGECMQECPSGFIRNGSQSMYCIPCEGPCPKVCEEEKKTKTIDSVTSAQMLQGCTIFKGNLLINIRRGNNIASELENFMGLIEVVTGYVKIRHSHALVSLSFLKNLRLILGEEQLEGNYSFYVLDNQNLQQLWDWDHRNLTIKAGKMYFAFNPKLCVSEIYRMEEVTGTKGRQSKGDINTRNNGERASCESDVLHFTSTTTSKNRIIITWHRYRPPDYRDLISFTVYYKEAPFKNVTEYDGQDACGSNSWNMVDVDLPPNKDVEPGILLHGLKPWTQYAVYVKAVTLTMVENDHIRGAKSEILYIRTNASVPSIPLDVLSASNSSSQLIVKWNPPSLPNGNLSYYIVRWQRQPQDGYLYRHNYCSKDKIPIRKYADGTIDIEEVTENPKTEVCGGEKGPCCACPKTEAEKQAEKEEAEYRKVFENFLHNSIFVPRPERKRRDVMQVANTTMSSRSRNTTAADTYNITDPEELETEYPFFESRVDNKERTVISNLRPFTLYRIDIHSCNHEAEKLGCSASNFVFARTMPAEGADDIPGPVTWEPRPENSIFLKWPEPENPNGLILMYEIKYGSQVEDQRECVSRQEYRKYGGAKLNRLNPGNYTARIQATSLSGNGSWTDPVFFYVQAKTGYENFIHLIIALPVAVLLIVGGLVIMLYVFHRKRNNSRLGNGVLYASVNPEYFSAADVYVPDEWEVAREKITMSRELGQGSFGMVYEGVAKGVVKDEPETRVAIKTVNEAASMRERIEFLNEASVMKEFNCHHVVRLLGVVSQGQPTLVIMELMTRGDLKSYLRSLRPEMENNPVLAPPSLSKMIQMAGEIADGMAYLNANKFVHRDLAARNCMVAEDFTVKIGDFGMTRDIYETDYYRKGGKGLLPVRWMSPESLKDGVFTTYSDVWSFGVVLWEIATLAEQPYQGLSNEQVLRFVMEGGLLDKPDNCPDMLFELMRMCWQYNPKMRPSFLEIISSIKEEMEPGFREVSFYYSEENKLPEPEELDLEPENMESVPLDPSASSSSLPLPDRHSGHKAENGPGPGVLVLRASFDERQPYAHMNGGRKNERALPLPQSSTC

Take `C[C@]1(O)C[C@@H](n2nc(-c3ccc4ccc(-c5ccccc5)nc4c3)c(C(N)=O)c2N)C1` [Example C005, 5-amino-1-((1s,3s)-3-hydroxy-3-methylcyclobutyl)-3-(2-phenylquinolin-7-yl)-1H-pyrazole-4-carboxamide]: the IC50 is no more than 100 nM at IGF-1R and no more than 1000 nM in the assay with Ba/F3-TEL-IGF-1R cells.

For the molecule `NC(=O)c1c(-c2ccc3ccc(-c4ccccc4)nc3c2)nn([C@H]2C[C@@H](CN3CCOCC3)C2)c1N` [Example C012, 5-amino-1-((1s,3s)-3-(morpholinomethyl)cyclobutyl)-3-(2-phenylquinolin-7-yl)-1H-pyrazole-4-carboxamide], the IC50 at IGF-1R was no more than 100 nM; with Ba/F3-TEL-IGF-1R cells, no more than 1000 nM.

`NC(=O)c1c(-c2ccc3ccc(-c4ccccc4)nc3c2)nn([C@H]2C[C@H](CN3CCOCC3)C2)c1N` [Example C013, 5-amino-1-((1r,3r)-3-(morpholinomethyl)cyclobutyl)-3-(2-phenylquinolin-7-yl)-1H-pyrazole-4-carboxamide]: the IC50 was no more than 100 nM on IGF-1R and no more than 1000 nM in the assay on Ba/F3-TEL-IGF-1R cells.

Consider `NC(=O)c1c(-c2ccc3ccc(-c4ccccc4)nc3c2)nn(C2COC2)c1N` [Example C029, 5-amino-1-(oxetan-3-yl)-3-(2-phenylquinolin-7-yl)-1H-pyrazole-4-carboxamide], for which, at IGF-1R, the IC50 fell in the range of 1000 to 20000 nM.

Consider `NC(=O)c1c(-c2ccc3ccc(-c4ccccc4)nc3c2)nn(C2CC(F)(F)C2)c1N` [Example C030, 5-amino-1-(3,3-difluorocyclobutyl)-3-(2-phenylquinolin-7-yl)-1H-pyrazole-4-carboxamide], for which the IC50 on IGF-1R lay in the range of 100 to 1000 nM.

In the case of `NC(=O)c1c(-c2ccc3ccc(-c4ccccc4)nc3c2)nn2c1NCC(C(N)=O)C2` (stereo not drawn) [Example C031], on IGF-1R, the IC50 was 1000 to 20000 nM.

Regarding `COc1cc(-c2ccccc2)nc2cc(-c3nn([C@H]4C[C@@](C)(O)C4)c(N)c3C(N)=O)ccc12` [Example C032, 5-amino-1-((1s,3s)-3-hydroxy-3-methylcyclobutyl)-3-(4-methoxy-2-phenylquinolin-7-yl)-1H-pyrazole-4-carboxamide], the IC50 at IGF-1R is no more than 100 nM; in the assay with Ba/F3-TEL-IGF-1R cells, no more than 1000 nM.

For `CCOc1cc(-c2ccccc2)nc2c(F)c(-c3nn([C@H]4C[C@@](C)(O)C4)c(N)c3C(N)=O)ccc12` [Example C033, 5-amino-3-(4-ethoxy-8-fluoro-2-phenylquinolin-7-yl)-1-((1s,3s)-3-hydroxy-3-methylcyclobutyl)-1H-pyrazole-4-carboxamide], the IC50 at IGF-1R was no more than 100 nM; in the assay with Ba/F3-TEL-IGF-1R cells, no more than 1000 nM.

In the case of `COc1cc(-c2ccccc2)nc2c(F)c(-c3nn([C@H]4C[C@@](C)(O)C4)c(N)c3C(N)=O)ccc12` [Example C034, 5-amino-3-(8-fluoro-4-methoxy-2-phenylquinolin-7-yl)-1-((1s,3s)-3-hydroxy-3-methylcyclobutyl)-1H-pyrazole-4-carboxamide], the IC50 was no more than 100 nM at IGF-1R and no more than 1000 nM in the assay with Ba/F3-TEL-IGF-1R cells.

Take `COc1cc(-c2ccccc2F)nc2c(F)c(-c3nn([C@H]4C[C@@](C)(O)C4)c(N)c3C(N)=O)ccc12` [Example C035, 5-amino-3-(8-fluoro-2-(2-fluorophenyl)-4-methoxyquinolin-7-yl)-1-((1s,3s)-3-hydroxy-3-methylcyclobutyl)-1H-pyrazole-4-carboxamide]: the IC50 on IGF-1R was no more than 100 nM; in the assay with Ba/F3-TEL-IGF-1R cells it was no more than 1000 nM.

As to `CCOc1cc(-c2ccccc2)nc2cc(-c3nn([C@H]4C[C@@](C)(O)C4)c(N)c3C(N)=O)ccc12` [Example C036, 5-amino-3-(4-ethoxy-2-phenylquinolin-7-yl)-1-((1s,3s)-3-hydroxy-3-methylcyclobutyl)-1H-pyrazole-4-carboxamide], the results for the IC50 on IGF-1R and with Ba/F3-TEL-IGF-1R cells were no more than 100 nM and no more than 1000 nM, respectively.

With `C[C@]1(O)C[C@@H](n2nc(-c3ccc4ccc(-c5ccccc5F)nc4c3)c(C(N)=O)c2N)C1` [Example C037, 5-amino-3-(2-(2-fluorophenyl)quinolin-7-yl)-1-((1s,3s)-3-hydroxy-3-methylcyclobutyl)-1H-pyrazole-4-carboxamide], the IC50 on IGF-1R was no more than 100 nM.

For the molecule `C[C@]1(O)C[C@@H](n2nc(-c3ccc4ccc(-c5ccccc5Br)nc4c3)c(C(N)=O)c2N)C1` [Example C038, 5-amino-3-(2-(2-bromophenyl)quinolin-7-yl)-1-((ls,3s)-3-hydroxy-3-methylcyclobutyl)-1H-pyrazole-4-carboxamide], the half-maximal inhibitory concentration (IC50) on IGF-1R was no more than 100 nM.

Take `C[C@]1(O)C[C@@H](n2nc(-c3ccc4ccc(-c5ccc(F)cc5)nc4c3)c(C(N)=O)c2N)C1` [Example C039, 5-amino-3-(2-(4-fluorophenyl)quinolin-7-yl)-1-((1s,3s)-3-hydroxy-3-methylcyclobutyl)-1H-pyrazole-4-carboxamide]: the IC50 at IGF-1R was 100 to 1000 nM.

As to `C[C@]1(O)C[C@H](n2nc(-c3ccc4ccc(-c5ccccc5F)nc4c3)c(C(N)=O)c2N)C1` [Example C040, 5-amino-3-(2-(2-fluorophenyl)quinolin-7-yl)-1-((1r,3r)-3-hydroxy-3-methylcyclobutyl)-1H-pyrazole-4-carboxamide], the IC50 on IGF-1R is no more than 100 nM.

`C[C@]1(O)C[C@@H](n2nc(-c3ccc4ccc(-c5cccc(F)c5)nc4c3)c(C(N)=O)c2N)C1` [Example C041, 5-amino-3-(2-(3-fluorophenyl)quinolin-7-yl)-1-((1s,3s)-3-hydroxy-3-methylcyclobutyl)-1H-pyrazole-4-carboxamide]: the IC50 at IGF-1R was no more than 100 nM.

As for `C[C@]1(O)C[C@@H](n2nc(-c3ccc4c(O)cc(-c5ccccc5)nc4c3F)c(C(N)=O)c2N)C1` [Example C042, 5-amino-3-(8-fluoro-4-hydroxy-2-phenylquinolin-7-yl)-1-((1s,3s)-3-hydroxy-3-methylcyclobutyl)-1H-pyrazole-4-carboxamide], the IC50 on IGF-1R was 1000 to 20000 nM.

In the case of `CCOc1cc(-c2ccccc2)nc2cc(-c3nn(C4CC(=O)C4)c(N)c3C(N)=O)ccc12` [Example C043, 5-amino-3-(4-ethoxy-2-phenylquinolin-7-yl)-1-(3-oxocyclobutyl)-1H-pyrazole-4-carboxamide], on IGF-1R, the IC50 was no more than 100 nM.

As for `C[C@]1(O)C[C@@H](n2nc(-c3ccc4c(OC(F)F)cc(-c5ccccc5)nc4c3F)c(C(N)=O)c2N)C1` [Example C044, 5-amino-3-(4-(difluoromethoxy)-8-fluoro-2-phenylquinolin-7-yl)-1-((1s,3s)-3-hydroxy-3-methylcyclobutyl)-1H-pyrazole-4-carboxamide], on IGF-1R, the IC50 is no more than 100 nM.

`COc1cc(-c2ccccc2F)nc2cc(-c3nn([C@H]4C[C@](C)(O)C4)c(N)c3C(N)=O)ccc12` [Example C047, 5-amino-3-(2-(2-fluorophenyl)-4-methoxyquinolin-7-yl)-1-((1r,3r)-3-hydroxy-3-methylcyclobutyl)-1H-pyrazole-4-carboxamide]: the IC50 at IGF-1R is no more than 100 nM.

Take `COc1cc(-c2cccc(F)c2)nc2cc(-c3nn([C@H]4C[C@](C)(O)C4)c(N)c3C(N)=O)ccc12` [Example C049, 5-amino-3-(2-(3-fluorophenyl)-4-methoxyquinolin-7-yl)-1-((1r,3r)-3-hydroxy-3-methylcyclobutyl)-1H-pyrazole-4-carboxamide]: the IC50 on IGF-1R is no more than 100 nM.

On to `COc1cc(-c2ccccc2)nc2cc(-c3nn([C@H]4C[C@](C)(O)C4)c(N)c3C(N)=O)c(F)cc12` [Example C052, 5-amino-3-(6-fluoro-4-methoxy-2-phenylquinolin-7-yl)-1-((lr,3r)-3-hydroxy-3-methylcyclobutyl)-1H-pyrazole-4-carboxamide], for which the IC50 at IGF-1R was no more than 100 nM.

Turning to `C[C@]1(O)C[C@@H](n2nc(-c3ccc4c(OC(F)F)cc(-c5ccccc5)nc4c3)c(C(N)=O)c2N)C1` [Example C053, 5-amino-3-(4-(difluoromethoxy)-2-phenylquinolin-7-yl)-1-((1s,3s)-3-hydroxy-3-methylcyclobutyl)-1H-pyrazole-4-carboxamide], the IC50 on IGF-1R is no more than 100 nM.

On to `C[C@]1(O)C[C@@H](n2nc(-c3ccc4cnc(-c5ccccc5)nc4c3)c(C(N)=O)c2N)C1` [Example C054, 5-amino-1-((1s,3s)-3-hydroxy-3-methylcyclobutyl)-3-(2-phenylquinazolin-7-yl)-1H-pyrazole-4-carboxamide], for which, at IGF-1R, the IC50 fell in the range of 1000 to 20000 nM.

Turning to `COc1cc(-c2ccccc2)nc2cc(-c3nn([C@H]4C[C@@](C)(O)C4)c(N)c3C(N)=O)cc(F)c12` [Example C055, 5-amino-3-(5-fluoro-4-methoxy-2-phenylquinolin-7-yl)-1-((1s,3s)-3-hydroxy-3-methylcyclobutyl)-1H-pyrazole-4-carboxamide], the IC50 at IGF-1R lay in the range of 100 to 1000 nM.

With `C[C@]1(O)C[C@@H](n2nc(-c3ccc4ccc(-c5ccccn5)nc4c3F)c(C(N)=O)c2N)C1` [Example C057, 5-amino-3-(8-fluoro-2-(pyridin-2-yl)quinolin-7-yl)-1-((1s,3s)-3-hydroxy-3-methylcyclobutyl)-1H-pyrazole-4-carboxamide], on IGF-1R, the IC50 fell in the range of 100 to 1000 nM.

Consider `C[C@]1(O)C[C@@H](n2nc(-c3ccc4cc(F)c(-c5ccccc5)nc4c3F)c(C(N)=O)c2N)C1` [Example C059, 5-amino-3-(3,8-difluoro-2-phenylquinolin-7-yl)-1-((1s,3s)-3-hydroxy-3-methylcyclobutyl)-1H-pyrazole-4-carboxamide], for which the IC50 at IGF-1R was 100 to 1000 nM.

As for `COc1nc(-c2ccccc2)nc2cc(-c3nn([C@H]4C[C@@](C)(O)C4)c(N)c3C(N)=O)ccc12` [Example C064, 5-amino-1-((1s,3s)-3-hydroxy-3-methylcyclobutyl)-3-(4-methoxy-2-phenylquinazolin-7-yl)-1H-pyrazole-4-carboxamide], the IC50 at IGF-1R was 100 to 1000 nM.

One may read the IC50 as the concentration that gives 50% inhibition.
